Laboratory results as given in the supplement of paper PMC13380429.

What was measured:
Conditions in all cases: 72 h
Vero E6 [1] = experiment: drug sensitivity score (DSS) for viability; higher = more toxic; extreme values may be limits of the assay
Calu-3 [2] = experiment: as above
HepG2 [3] = experiment: as above
U2OS [4] = experiment: as above
Caco-2 [5] = experiment: as above
Vero E6 [6] = experiment: cell viability relative to DMSO; higher = less toxic
Calu-3 [7] = experiment: as above
HepG2 [8] = experiment: as above
U2OS [9] = experiment: as above
Caco-2 [10] = experiment: as above
Vero E6 [11] = experiment: relative viability EC50 (midpoint between 100% and the lowest measured viability); higher = less toxic
Calu-3 [12] = experiment: as above
HepG2 [13] = experiment: as above
U2OS [14] = experiment: as above
Caco-2 [15] = experiment: as above

Compound | drug sensitivity score (Vero E6 [1]) | drug sensitivity score (Calu-3 [2]) | drug sensitivity score (HepG2 [3]) | drug sensitivity score (U2OS [4]) | drug sensitivity score (Caco-2 [5]) | cell viability (Vero E6 [6]; 1 nM) [%] | cell viability (Vero E6 [6]; 10 nM) [%] | cell viability (Vero E6 [6]; 100 nM) [%] | cell viability (Vero E6 [6]; 1000 nM) [%] | cell viability (Vero E6 [6]; 10000 nM) [%] | cell viability (Calu-3 [7]; 1 nM) [%] | cell viability (Calu-3 [7]; 10 nM) [%] | cell viability (Calu-3 [7]; 100 nM) [%] | cell viability (Calu-3 [7]; 1000 nM) [%] | cell viability (Calu-3 [7]; 10000 nM) [%] | cell viability (HepG2 [8]; 1 nM) [%] | cell viability (HepG2 [8]; 10 nM) [%] | cell viability (HepG2 [8]; 100 nM) [%] | cell viability (HepG2 [8]; 1000 nM) [%] | cell viability (HepG2 [8]; 10000 nM) [%] | cell viability (U2OS [9]; 1 nM) [%] | cell viability (U2OS [9]; 10 nM) [%] | cell viability (U2OS [9]; 100 nM) [%] | cell viability (U2OS [9]; 1000 nM) [%] | cell viability (U2OS [9]; 10000 nM) [%] | cell viability (Caco-2 [10]; 1 nM) [%] | cell viability (Caco-2 [10]; 10 nM) [%] | cell viability (Caco-2 [10]; 100 nM) [%] | cell viability (Caco-2 [10]; 1000 nM) [%] | cell viability (Caco-2 [10]; 10000 nM) [%] | relative viability EC50 (Vero E6 [11]) [µM] | relative viability EC50 (Calu-3 [12]) [µM] | relative viability EC50 (HepG2 [13]) [µM] | relative viability EC50 (U2OS [14]) [µM] | relative viability EC50 (Caco-2 [15]) [µM]
C[N+](C)(C)CC(=O)O [betaine] | 0 | 0 | 0 | 0 | 0 | 115 | 100 | 104 | 107 | 98.9 | 101 | 95.8 | 106 | 91.4 | 98.7 | 96.3 | 89.1 | 108 | 98.6 | 106 | 99.5 | 102 | 98.8 | 104 | 96.7 | 99.7 | 90 | 93.5 | 96.9 | 87.1 | > 10 | > 10 | > 10 | > 10 | > 10
O=C1C[C@@]2(C(=O)N1)C(=O)N(Cc1ccc(Br)cc1F)C(=O)c1cccn12 [ranirestat] | 0 | 0 | 0 | 0 | 0 | 94 | 96.7 | 90.8 | 92.2 | 100 | 92.6 | 104 | 104 | 102 | 95.8 | 102 | 106 | 90.6 | 99.2 | 104 | 96.8 | 97.1 | 103 | 96.8 | 100 | 99.6 | 98.4 | 101 | 98.6 | 103 | > 10 | > 10 | > 10 | > 10 | > 10
C[C@@H](NC(=O)[C@@H](N)Cc1ccc(O)cc1)C(=O)NCC(=O)N(C)[C@@H](Cc1ccccc1)C(=O)N[C@H](CO)CC[S+](C)[O-] (stereo not given in full) [FK-33-824] | 0 | 0 | 0 | 0 | 0 | 99.5 | 97.5 | 93.3 | 97 | 107 | 98.7 | 94.1 | 99.4 | 92.1 | 92.6 | 98.9 | 93.7 | 109 | 101 | 100 | 98.8 | 106 | 98.6 | 101 | 100 | 98 | 95.7 | 90.7 | 96.1 | 102 | > 10 | > 10 | > 10 | > 10 | > 10
NC(=O)NO [hydroxyurea] | 0 | 0 | 0 | 0 | 0.1 | 95.6 | 101 | 101 | 97.1 | 112 | 104 | 89.4 | 99 | 103 | 95.2 | 106 | 81.9 | 125 | 115 | 103 | 97.1 | 98.2 | 102 | 96 | 99.8 | 96.5 | 87 | 103 | 77.9 | 94.1 | > 10 | > 10 | > 10 | > 10 | > 10
COc1ccc(-c2nc(N3CCOCC3)c3sc(CN(C)c4ncc(C(=O)NO)cn4)cc3n2)cn1 [CUDC-907] | 34 | 32 | 37.9 | 38.7 | 33 | 103 | 78.2 | 0 | -0.3 | -0.4 | 85.2 | 65.4 | 14.1 | 5.1 | 3.7 | 90.2 | 39.6 | 0.6 | -0.1 | -0.1 | 90.9 | 34.4 | 0.6 | 0.3 | 0.4 | 81.5 | 73.2 | 3.5 | 0.6 | 1 | 0.0166 | 0.0152 | 0.0069 | 0.006 | 0.0177
CN1CCN(C(=O)C2C(C(=O)O)[C@H]3CC[C@@H]2O3)CC1 (stereo not given in full) [LB-100] | 0 | 0.5 | 0 | 0 | 5.9 | 98.3 | 101 | 93.1 | 99 | 106 | 95.6 | 91.5 | 106 | 92.8 | 86.7 | 98.6 | 97.3 | 109 | 96.6 | 102 | 103 | 92.9 | 99.4 | 96.2 | 95.6 | 103 | 85.7 | 99.8 | 84.7 | 36.5 | > 10 | > 10 | > 10 | > 10 | 1.58
CN1CCN(c2nc3ccccc3nc2Cl)CC1 | 0 | 0 | 0 | 0 | 0 | 101 | 102 | 103 | 94.2 | 97.5 | 93.4 | 105 | 106 | 92.4 | 98.3 | 97.2 | 92.9 | 104 | 93 | 95.9 | 95.9 | 97.6 | 99 | 103 | 96.3 | 89.4 | 90.5 | 98.3 | 88.4 | 91.6 | > 10 | > 10 | > 10 | > 10 | > 10
CCOc1c2c(c(OCC)c3ccccc13)C(=O)N(c1ccc(CC(=O)NS(=O)(=O)c3ccccc3)cc1)C2 | 0 | 0 | 0 | 0 | 0 | 96 | 95.1 | 97.9 | 89.1 | 101 | 94 | 98.6 | 102 | 98.1 | 98.2 | 97.6 | 87 | 104 | 93.1 | 104 | 99.4 | 100 | 96.4 | 98.9 | 97.2 | 96.3 | 94.8 | 97.7 | 90.3 | 89.8 | > 10 | > 10 | > 10 | > 10 | > 10
CNS(=O)(=O)Cc1ccc2[nH]cc(CCN(C)C)c2c1 [sumatriptan] | 0 | 0 | 0 | 0 | 0 | 91.6 | 94.4 | 87.9 | 94.7 | 103 | 101 | 95.7 | 93.6 | 100 | 94.4 | 81.4 | 106 | 89.1 | 101 | 99.5 | 98.1 | 95.2 | 97.8 | 96.2 | 97.7 | 91.4 | 96.7 | 104 | 106 | 96.2 | > 10 | > 10 | > 10 | > 10 | > 10
Nc1nc2[nH]cnc2c(=S)[nH]1 [thioguanine] | 4.8 | 0.9 | 7.1 | 7.9 | 5.7 | 96.6 | 103 | 92.3 | 97.5 | 19.2 | 99.6 | 103 | 95 | 94.8 | 80.5 | 88.1 | 99 | 86.2 | 84.1 | 19.2 | 104 | 98.5 | 94 | 67.4 | 25.1 | 101 | 90.1 | 94.6 | 76.2 | 43.4 | 2.94 | > 10 | 1.75 | 1.16 | 1.19
COC1=C[C@@H]2[C@@H]3Cc4ccc(OC)c(O)c4[C@]2(CCN3C)CC1=O [sinomenine] | 0 | 0 | 0.4 | 0 | 0 | 105 | 97.7 | 103 | 97 | 105 | 100 | 95.4 | 100 | 92.4 | 95.8 | 109 | 104 | 99.2 | 88.5 | 96.3 | 94.1 | 98.5 | 98.8 | 104 | 94.3 | 107 | 96.9 | 90.5 | 98.8 | 104 | > 10 | > 10 | > 10 | > 10 | > 10
CCN(CC)Cc1nccn1-c1ccc([N+](=O)[O-])cc1C(=O)c1ccccc1Cl [nizofenone] | 0 | 0 | 0 | 0 | 0.3 | 102 | 100 | 104 | 102 | 92.9 | 93.3 | 105 | 98.8 | 105 | 99.5 | 100 | 96 | 98.4 | 95.7 | 95.5 | 105 | 102 | 97.1 | 102 | 98.7 | 124 | 92.8 | 81.8 | 108 | 81.1 | > 10 | > 10 | > 10 | > 10 | > 10
